One compound from patent US20250195534A1 (AXSOME THERAPEUTICS, INC., priority 2022, published 2025) can be followed below.

Each structure is given as a SMILES string.

The nature of the data set: Phase 3 randomized, double-blind, placebo- and active-controlled trial of meloxicam/rizatriptan in acute treatment of migraine (Example 1, MOMENTUM).
[1] abbreviates: treatment-emergent adverse event.

In the case of `CN(C)CCc1c[nH]c2ccc(Cn3cncn3)cc12` [Rizatriptan], for the setting “[…] after dosing, single dose”, the “proportion of patients experiencing pain relief” value is reported as 52.5%. The “percentage of patients experiencing sustained pain relief” value (from 2 hours to 24 hours after dosing) worked out at 43.9%. Besides, the “proportion of patients with sustained pain freedom” value (from 2 hours to 48 hours) is 8.8%. Further, for the setting “single dose”, the “Any Treatment-Emergent Adverse Event, number of subjects” value came out at 67 subjects. For the same compound, under setting [1], the “Dizziness, % of subjects” value is 2.1%; the “Dizziness, number of subjects” value worked out at 9 subjects; the “Nausea, % of subjects” value was 4.8%; the “Nausea, number of subjects” value is on record as 21 subjects. Besides, under setting [1], the “Somnolence, % of subjects” value worked out at 2.1% and the “Somnolence, number of subjects” value was 9 subjects.
